# Values quoted from earlier work, collected in US20090162416A1, “Polymer implants for timed release of drugs with particular emphasis on ovulation or spermiation of fish” (priority 2007, published 2009).
# Non-standard residues stand in square brackets, D forms with d. pGlu = O=C1CC[C@@H](C(=O)O)N1
# Tested on: seasonable ripe gravid female catfish
# Details: 0.45 mg/lb of body weight
substance,measurement,value
"-Glp-His-Trp-Ser-Tyr-Gly-Leu-Arg-Pro-ethylamide- ([pGlu]HWSYGLRP-NHEt) [LHRH, nine amino acid synthetic polypeptide used to promote ovulation in catfish]",time to ovulation after single injection,≤ 12 h
